PubChem BioAssay (NCI)
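How tested: cells in 96-well plates exposed to compound for 48 hours at five concentrations. TGI: concentration producing complete growth inhibition.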

How the values were obtained:
Experiment in all cases: NCI-60 cell line screen, 48 h
HCC-2998 colon = system: HCC-2998 colon
A549 NSCLC = system: A549 NSCLC
UACC-257 melanoma = system: UACC-257 melanoma
MDA-MB-435 = system: MDA-MB-435
SK-MEL-2 melanoma = system: SK-MEL-2 melanoma
NCI-H460 lung = system: NCI-H460 lung
LOX IMVI melanoma = system: LOX IMVI melanoma
SF-268 CNS = system: SF-268 CNS
BT-549 breast = system: BT-549 breast
HOP-62 NSCLC = system: HOP-62 NSCLC
SF-539 CNS = system: SF-539 CNS
SN12C renal = system: SN12C renal
786-0 renal = system: 786-0 renal
HCT-116 colon = system: HCT-116 colon
SK-MEL-5 melanoma = system: SK-MEL-5 melanoma
RXF 393 renal = system: RXF 393 renal
NCI-H522 lung = system: NCI-H522 lung
OVCAR-4 ovarian = system: OVCAR-4 ovarian
U251 CNS = system: U251 CNS
SNB-75 CNS = system: SNB-75 CNS
T-47D breast = system: T-47D breast
COLO 205 colon = system: COLO 205 colon
M14 melanoma = system: M14 melanoma
DU-145 prostate = system: DU-145 prostate
CAKI-1 renal = system: CAKI-1 renal
MOLT-4 leukemia = system: MOLT-4 leukemia
SF-295 CNS = system: SF-295 CNS
UO-31 renal = system: UO-31 renal
SK-MEL-28 melanoma = system: SK-MEL-28 melanoma
NCI/ADR-RES ovarian = system: NCI/ADR-RES ovarian
SNB-19 CNS = system: SNB-19 CNS
TK-10 renal = system: TK-10 renal
MCF7 breast = system: MCF7 breast
SR leukemia = system: SR leukemia
HOP-92 NSCLC = system: HOP-92 NSCLC
MDA-MB-231 breast = system: MDA-MB-231 breast
HT29 colon = system: HT29 colon
RPMI-8226 leukemia = system: RPMI-8226 leukemia
OVCAR-8 ovarian = system: OVCAR-8 ovarian
ACHN renal = system: ACHN renal
MDA-N = system: MDA-N
A498 renal = system: A498 renal
NCI-H226 lung = system: NCI-H226 lung
HL-60(TB) leukemia = system: HL-60(TB) leukemia
IGROV1 ovarian = system: IGROV1 ovarian
UACC-62 melanoma = system: UACC-62 melanoma
HCT-15 colon = system: HCT-15 colon
OVCAR-5 ovarian = system: OVCAR-5 ovarian
KM12 colon = system: KM12 colon
NCI-H23 lung = system: NCI-H23 lung
K-562 leukemia = system: K-562 leukemia
MALME-3M melanoma = system: MALME-3M melanoma
PC-3 prostate = system: PC-3 prostate
OVCAR-3 ovarian = system: OVCAR-3 ovarian
HS 578T breast = system: HS 578T breast
CCRF-CEM leukemia = system: CCRF-CEM leukemia
SK-OV-3 ovarian = system: SK-OV-3 ovarian
EKVX NSCLC = system: EKVX NSCLC
SW-620 colon = system: SW-620 colon

## COc1c(C)c2c(c(=O)c3c(C)cccc3n2C)c2c1c(=O)c1c(C)cccc1n2C
HCC-2998 colon
  TGI: > 10 µM
A549 NSCLC
  TGI: > 10 µM
UACC-257 melanoma
  TGI: > 10 µM
MDA-MB-435
  TGI: > 10 µM
SK-MEL-2 melanoma
  TGI: > 10 µM
NCI-H460 lung
  TGI: > 10 µM
LOX IMVI melanoma
  TGI: > 10 µM
SF-268 CNS
  TGI: > 10 µM
BT-549 breast
  TGI: > 10 µM
HOP-62 NSCLC
  TGI: > 10 µM
SF-539 CNS
  TGI: > 10 µM
SN12C renal
  TGI: > 10 µM
786-0 renal
  TGI: > 10 µM
HCT-116 colon
  TGI: > 10 µM
SK-MEL-5 melanoma
  TGI: > 10 µM
RXF 393 renal
  TGI: > 10 µM
NCI-H522 lung
  TGI: > 10 µM
OVCAR-4 ovarian
  TGI: > 10 µM
U251 CNS
  TGI: > 10 µM
SNB-75 CNS
  TGI: > 10 µM
T-47D breast
  TGI: > 10 µM
COLO 205 colon
  TGI: > 10 µM
M14 melanoma
  TGI: > 10 µM
DU-145 prostate
  TGI: > 10 µM
CAKI-1 renal
  TGI: > 10 µM
MOLT-4 leukemia
  TGI: > 10 µM
SF-295 CNS
  TGI: > 10 µM
UO-31 renal
  TGI: > 10 µM
SK-MEL-28 melanoma
  TGI: > 10 µM
NCI/ADR-RES ovarian
  TGI: > 10 µM
SNB-19 CNS
  TGI: > 10 µM
TK-10 renal
  TGI: > 10 µM
MCF7 breast
  TGI: > 10 µM
SR leukemia
  TGI: > 10 µM
HOP-92 NSCLC
  TGI: > 10 µM
MDA-MB-231 breast
  TGI: > 10 µM
HT29 colon
  TGI: > 10 µM
RPMI-8226 leukemia
  TGI: > 10 µM
OVCAR-8 ovarian
  TGI: > 10 µM
ACHN renal
  TGI: > 10 µM
MDA-N
  TGI: > 10 µM
A498 renal
  TGI: > 10 µM
NCI-H226 lung
  TGI: > 10 µM
HL-60(TB) leukemia
  TGI: > 10 µM
IGROV1 ovarian
  TGI: > 10 µM
UACC-62 melanoma
  TGI: > 10 µM
HCT-15 colon
  TGI: > 10 µM
OVCAR-5 ovarian
  TGI: > 10 µM
KM12 colon
  TGI: > 10 µM
NCI-H23 lung
  TGI: > 10 µM
K-562 leukemia
  TGI: > 10 µM
MALME-3M melanoma
  TGI: > 10 µM
PC-3 prostate
  TGI: > 10 µM
OVCAR-3 ovarian
  TGI: > 10 µM
HS 578T breast
  TGI: > 10 µM
CCRF-CEM leukemia
  TGI: > 10 µM
SK-OV-3 ovarian
  TGI: > 10 µM
EKVX NSCLC
  TGI: > 10 µM

## COc1ccc2c(=O)c3ccoc3n(CC=C(C)C)c2c1
HCC-2998 colon
  TGI: > 100 µM
A549 NSCLC
  TGI: > 100 µM
UACC-257 melanoma
  TGI: > 100 µM
MDA-MB-435
  TGI: > 100 µM
SK-MEL-2 melanoma
  TGI: > 100 µM
NCI-H460 lung
  TGI: > 100 µM
LOX IMVI melanoma
  TGI: > 100 µM
SW-620 colon
  TGI: > 100 µM
SF-268 CNS
  TGI: > 100 µM
BT-549 breast
  TGI: > 100 µM
HOP-62 NSCLC
  TGI: > 100 µM
SF-539 CNS
  TGI: > 100 µM
SN12C renal
  TGI: > 100 µM
786-0 renal
  TGI: > 100 µM
HCT-116 colon
  TGI: > 100 µM
SK-MEL-5 melanoma
  TGI: > 69.3 µM
RXF 393 renal
  TGI: > 81.1 µM
NCI-H522 lung
  TGI: > 33.2 µM
OVCAR-4 ovarian
  TGI: > 100 µM
U251 CNS
  TGI: > 100 µM
SNB-75 CNS
  TGI: > 100 µM
T-47D breast
  TGI: > 100 µM
COLO 205 colon
  TGI: > 100 µM
M14 melanoma
  TGI: > 100 µM
DU-145 prostate
  TGI: > 100 µM
CAKI-1 renal
  TGI: 9.83 µM
MOLT-4 leukemia
  TGI: > 100 µM
SF-295 CNS
  TGI: > 100 µM
UO-31 renal
  TGI: > 100 µM
SK-MEL-28 melanoma
  TGI: > 100 µM
NCI/ADR-RES ovarian
  TGI: 76.4 µM
SNB-19 CNS
  TGI: > 100 µM
TK-10 renal
  TGI: > 100 µM
MCF7 breast
  TGI: > 100 µM
SR leukemia
  TGI: > 100 µM
HOP-92 NSCLC
  TGI: > 63.7 µM
MDA-MB-231 breast
  TGI: > 100 µM
HT29 colon
  TGI: > 100 µM
RPMI-8226 leukemia
  TGI: > 100 µM
OVCAR-8 ovarian
  TGI: > 100 µM
MDA-N
  TGI: > 100 µM
A498 renal
  TGI: > 100 µM
NCI-H226 lung
  TGI: > 100 µM
HL-60(TB) leukemia
  TGI: > 96.6 µM
IGROV1 ovarian
  TGI: > 100 µM
UACC-62 melanoma
  TGI: > 100 µM
HCT-15 colon
  TGI: > 100 µM
OVCAR-5 ovarian
  TGI: > 100 µM
KM12 colon
  TGI: > 100 µM
NCI-H23 lung
  TGI: > 100 µM
K-562 leukemia
  TGI: > 100 µM
MALME-3M melanoma
  TGI: 18.7 µM
PC-3 prostate
  TGI: > 100 µM
OVCAR-3 ovarian
  TGI: > 100 µM
HS 578T breast
  TGI: > 100 µM
CCRF-CEM leukemia
  TGI: > 100 µM
SK-OV-3 ovarian
  TGI: > 100 µM
EKVX NSCLC
  TGI: > 100 µM
